From patent publication US6890305B2, “Reagent and method for measuring lung function” (Cambridge Isotope Laboratories, priority 2002, dated 2005)

Assay: 13C-sodium bicarbonate breath test in one asthma patient, pre vs post inhaler medication
Format: in vivo, human
Settings: breath test 45 minutes post medication vs pre-medication, advair and albuterol taken together, FIG. 4
Experimental: FIG. 3 exemplifies two such breath curves.
In this embodiment, the slope of the Δ ^13CO2 curve at time points t1 and t2 is calculated according to the following equation: slope={(Δ ^13CO2)2−(Δ ^13CO2)1}/(t2−t1)
As an example, the slope of the curve of FIG. 4 can be measured at the 10 minute time point and the 20 minute time point, to give a variable for determining lung function. […] It can be seen from FIG. 4 that the individual post-medication curve has a steeper slope for the 10 and 20 minute time point interval than prior to the medication, indicating an improved lung function. These specific time values are exemplary only and other time periods or half life of the disappearance curve can be used.
This example describes the monitoring of the reduction in airway resistance in one asthma patient following inhaler medication therapy—advair (fluticasone propionate 100 mcg and salmeterol 50 mcg inhalation powder) and albuterol (racemic (α^1-[(tert-butylamino)methyl]-4-hydroxy-m-xylene-α,α′-diol, commercially available as Ventolin®, Proventil®) a relatively selective beta2-adrenergic bronchodilator.
A breath test was performed at 7 am before the patient ingested any asthma medication. The medication was taken at 8:15 am.

Q: Which results are given for `CC(C)(C)NCC(O)c1ccc(O)c(CO)c1` (racemic) [albuterol]?
A: AUC of expired Δ13CO2 breath curve (cumulative ‰×h), post vs pre medication: improvement; slope of Δ13CO2 breath curve between 10-20 minutes, post vs pre medication: possibly the slope (steepening)
